Literature values as cited in patent publication US20160143979A1, “Long Pepper Extract an Effective Anticancer Treatment” (priority 2014, published 2016).

System: cancer cells
Details: previous study

COc1cc(/C=C/C(=O)N2CCC=CC2=O)cc(OC)c1OC [piperlongumine]
concentration required for significant cell death induction: 10
